Results from patent US20060111289A1, “Compositions and methods of using Alpha-fetoprotein growth inhibitory peptides” (Serometrix, LLC,, priority 2004, published 2006).

B1: α2-antiplasma: positive control in the platelet aggregation assay (protein, UniProt P08697 40-491, looked up)
Alpha-2-antiplasmin: NQEQVSPLTLLKLGNQEPGGQTALKSPPGVCSRDPTPEQTHRLARAMMAFTADLFSLVAQTSTCPNLILSPLSVALALSHLALGAQNHTLQRLQQVLHAGSGPCLPHLLSRLCQDLGPGAFRLAARMYLQKGFPIKEDFLEQSEQLFGAKPVSLTGKQEDDLANINQWVKEATEGKIQEFLSGLPEDTVLLLLNAIHFQGFWRNKFDPSLTQRDSFHLDEQFTVPVEMMQARTYPLRWFLLEQPEIQVAHFPFKNNMSFVVLVPTHFEWNVSQVLANLSWDTLHPPLVWERPTKVRLPKLYLKHQMDLVATLSQLGLQELFQAPDLRGISEQSLVVSGVQHQSTLELSEVGVEAAAATSIAMSRMSLSSFSVNRPFLFFIFEDTTGLPLFVGSVRNPNPSAPRELKEQQDSPGNKDFLQSLKGFPRGDKLFGPDLKLVPPMEEDYPQFGSPK

Tests used:
[1] = tested on: MCF-7 and 6WI-1 tumor cells; assay: Tumor cell adhesion to ECM proteins in microtiter plates; format: cell-based, human, murine
Method: FIG. 8 presents exemplary data showing the inhibition of P149 in the cellular adhesion of cancer cells to extracellular matrix (ECM) proteins for both human MCF-7 breast cancer cells and for murine 6WI-1 ascites-adapted mammary tumor cells. The cellular adhesion assay was performed in 96-well microtiter plates (Nunc Company, Denmark, catalog #263339) and the wells were pre-coated with 100 microliters of each of the above-mentioned ECM proteins for 24 hours as previously determined. After adding tumor cells, the plates were then incubated at 37° C. for various times; while 6WI-1 cells usually required only 2-4 hours incubation for adhesion; MCF-7 cells required 24 hours for attachment following trypsinization. For both cell lines, the cell culture media contained 5% calf serum to ensure cell attachment. The plates were washed twice with Hank's Saline, fixed in 0.5 mL of 37% formaldehyde, stained with crystal violet and read at […] on a microplate reader. Inset: Using a CyQUANT® stain kit, (Hoechst Corp., Germany) the plates were first exposed to a freeze/thaw cycle at −70° C. for 24 hours and 37° C. for 10 minutes. CyQUANT® buffer solution (150 microliters) was added to each well, and the cell adhesion was measured by fluorescence spectroscopy and quantitated using an ImageQuant® plate scanner (Fluorimager 595, Molecular Dynamics, Sunnyvale, Calif.).
This attachment of GIP was a slightly weaker adhesion matrix than was gelatin, chondroitin sulfate, and poly-lysine which approximated 30-35%. Using P149, the optimal amount of peptide required to inhibit tumor cell adhesion was determined by absorbing soluble peptide (1.0 pg to 100 μg) to the walls of microtiter plates. A constant number of MCF-7 tumor cells (i.e., for example, 1×10^5) were then added to the microtiter well and adhesion quantitated by fluorescence. […] The quantitation of MCF-7 and 6WI-1 cell adhesion in the presence of peptide versus peptide-free media was then determined on ECM-coated microtiter plates using 3 μg GIP/well as a competitive inhibitor. The P149 peptide was added to the wells immediately after the cells were dispensed and then the mixture was incubated as described. The AFP peptide was capable of cell adhesion inhibition in most of the ECM proteins in both tumor cell lines. Inhibition of mouse and human tumor cell adhesion was somewhat equivalent using collagen IV, fibrinogen, fibronectin, and thrombospondin. […] Thus, the GIP was found capable of eliciting different attachment inhibitions dependent on the type of ECM protein coating the wall of the microtiter plate and also the tumor cell type involved.

[2] = tested on: 6WI-1 mammary tumor cells; assay: 6WI-1 mammary tumor in 15-day old mouse pups (6 day assay); format: in vivo; design: % Inhibition Of Activity: 6WI-1 Pup Ascites: concentration or dose not given beside the values; details: mouse pups
Source text: As an alternative model of the 6WI-I mammary tumor in adult mice, an inocula of 1×10^6 tumor cells injected into 15-day old mouse pups provided a 6 day rather than a 12 day assay and replicated the same tumor growth suppression by GIP.

[3] = tested on: 6WI-1 mammary tumor cells; assay: Mouse ascites mammary tumor assay (6WI-1 isograft); format: in vivo; details: for Suppression of accumulation of cells and ascites fluid volume (anticancer activity): 1.0 μg peptide per day for 11 days; for % Inhibition Of Activity: 6WI-1 Acites Volume / % Inhibition Of Activity: 6WI-1 Body Weight / % Inhibition Of Activity: 6WI-1 Cell Prol: 6WI-1 mouse mammary ascites tumor
Method: The growth suppression of the mammary ascites tumor by AFP peptides and its fragments P149a, P149b and P149c, and control peptides were determined in non-estrogen dependent assays which measured tumor cell growth and ascites accumulation of 6WI-1 mammary transplanted NYLAR/nya mice. […] Tumor cell inocula included doses of 0.3, 1.0, and 3.0×10^6 cells which produced host mortality at 12-14 days which was lethal in 100% of the animals. Following peptide dose titration studies, mice inoculated with 6WI-1 mammary cells were injected with a previously-determined optimal dose of 1.0 μg peptide per day or saline for 11 days. On day 12 following inoculation, the total accumulated ascites fluid volume and tumor cells in the peritoneal cavity of each animal were harvested and the cell count determined.
Inoculation of mice with all three cell doses led to an increase in body weight from 25 g (day 0) to approximately […] by day 12, due to the accumulation of tumor cells and ascites fluid in the intraperitoneal cavity. An average cell count in accumulated ascites fluid on day 12 was greater than 10^8 cells/ml with a total ascites volume approximating 20 mls. Tumor cell proliferation in this model has been reported to correlate with the volume of ascites fluid accumulated.
The 6WI-1 mouse mammary tumor studies involving peptide and non-peptide treatment were further compared by histopathological analysis performed on hematoxylin/eosin stained tissue sections.

[4] = tested on: immature mouse uterine growth; assay: E2-activated immature mouse uterine growth assay; format: in vivo; design: % Inhibition Of Activity: Uterine Growth: concentration or dose not given beside the values; details: mouse, in vivo
Method: FIG. 3 presents exemplary data showing the growth suppressive activities of the oligomeric forms of P149, cyclic versus linear, are depicted in various in vitro and in vivo models. Biological activity was determined by three growth-dependent bioassays, namely; • Panel-A and A1) an immature rodent uterine bioassay; • Panel-B and B 1) an in vitro MCF-7 foci assay; • Panel-C and C1) an in vitro tumor cell cytostatic assessment. […] See text for details. Scrambled peptide=P327. […]

[5] = tested on: human kidney tumor cell line
MCF-7 cells = assay: Estrogen-dependent MCF-7 foci formation assay; format: cell-based, human; design: % Inhibition Of Activity: MCF-7 foci formation: concentration or dose not given beside the values
Source text: Mizejewski et al., “Alpha-fetoprotein derived synthetic peptides: assay of an estrogen-modifying regulatory segment” Mol Cell Endocrinol 118:15-23 (1996). The P149 peptide inhibited the formation of tumor cell foci formed as a result of the accumulation of breast cancer cells which clump together due to loss of contact inhibition.

Estrogen fetotoxicity = assay: Estrogen fetotoxicity; design: concentration or dose not given beside the values; details: in vivo
human platelets = assay: Platelet aggregation in human platelet-rich plasma; format: cell-based; design: % Inhibition Of Activity: Platelet Agg. ADP / % Inhibition Of Activity: Platelet Agg. AA / % Inhibition Of Activity: Platelet Agg. Coll: concentration or dose not given beside the values; details: for % Inhibition Of Activity: Platelet Agg. ADP: ADP-induced; for % Inhibition Of Activity: Platelet Agg. AA: arachidonic acid-induced; for % Inhibition Of Activity: Platelet Agg. Coll: collagen-induced; for Inhibition (%) Of Platelet Aggregation, Adenosine Diphosphate (ADP) 2.5 μM / Inhibition (%) Of Platelet Aggregation, Arachidonic Acid (AA) 0.3 mM / Inhibition (%) Of Platelet Aggregation, Collagen (COLL) 2 μg/ml / Inhibition (%) Of Platelet Aggregation, Epinephrine: peptide inhibitors 30 & 100 μM
Method: FIG. 9 presents exemplary data showing platelet aggregation modulation using 0.5 ml of normal human platelet-rich plasma (PRP) with varying amounts of P149 or P 149b using 2.5×10^6 platelets per reaction vessel.
FIG. 10 presents exemplary data showing platelet aggregation activation by arachidonic acid (AA) and collagen using P149-treated platelet suspensions • Panel A1: AA alone; • Panel A2: AA followed by epinephine (EPI) and EPI alone using P149b; • Panel A3: CD62P flow cytometry fluorescence quenching by P149; • Panel B1: collagen alone and collagen+P149; • Panel B2: collagen alone; collagen+P149a showing aggregation diminution.
GIP-derived peptide fragments and/or subfragments have been assayed for platelet aggregation by measuring light transmissions with an aggregometer using a stirred human platelet suspension. Kinlough-Rathbone et al., In: Platelet Aggregation in Measurements of Platelet Function, Eds. Harker L A, Zimmerman T S., Churchill Livingstone, London. pp. 64-87 (1983); and Whittle et al., “Specificity between the anti-aggregatory actions of prostacyclin, prostaglandin Eland D2 on platelets” In: Mechanisms of stimulus—response coupling in platelets, Eds. V. V. K., MacIntyre D E, Scully M F., New York and London: Plenum Press. pp. 109-115 (1985).
The ability of GIP and its fragments were individually examined for aggregation inhibition using citrated human platelet-rich plasma (PRP). The peptides were freshly dissolved in 0.15 M NaCl containing 2.5×10^6 platelets/ml. […]

[6] = tested on: immature mouse uterine growth; assay: E2-activated immature mouse uterine growth assay; format: in vivo; design: concentration or dose not given beside the values

Molecule	% Inhibition Of Activity: Cell Adhesion [1]	% Inhibition Of Activity: 6WI-1 Pup Ascites [2]	Suppression of accumulation of cells and ascites fluid volume (anticancer activity) [3]	% Inhibition Of Activity: 6WI-1 Acites Volume [3]	% Inhibition Of Activity: 6WI-1 Body Weight [3]	% Inhibition Of Activity: 6WI-1 Cell Prol [3]	% Inhibition Of Activity: Uterine Growth [4]	% Inhibition Of Activity: Kidney tumor growth [5]	% Inhibition Of Activity: MCF-7 foci formation (MCF-7 cells)	% Inhibition Of Activity: Estrogen Fetotoxicty (Estrogen fetotoxicity)	% Inhibition Of Activity: Platelet Agg. ADP (human platelets)	% Inhibition Of Activity: Platelet Agg. AA (human platelets)	% Inhibition Of Activity: Platelet Agg. Coll (human platelets)	Inhibition (%) Of Platelet Aggregation, Adenosine Diphosphate (ADP) 2.5 μM (human platelets)	Inhibition (%) Of Platelet Aggregation, Arachidonic Acid (AA) 0.3 mM (human platelets)	Inhibition (%) Of Platelet Aggregation, Collagen (COLL) 2 μg/ml (human platelets)	Inhibition (%) Of Platelet Aggregation, Epinephrine (human platelets)	% Inhibition Of Activity: Uterine Growth, Enzymatic Fragments [6]	other results
AADIIIGHLCIRHE (listed as Homo sapiens) [P149b]	58%	32%	but not P149a or P149b, significantly suppressed	26%	31%	34%	22%	50%	31%	67%	95%	100%	90%	95-98%	100%	90%	No effect	19%	Inhibition of ADP-induced platelet aggregation (FIG. 9) (human platelets; 0.5 ml PRP, 2.5×10^6 platelets per reaction vessel): 70%; Inhibition of ADP-induced platelet aggregation (human platelets; ADP 3 μM, P149 at 100-300 μM PRP): 80-90%; Inhibition of arachidonic acid (AA)-induced platelet aggregation (human platelets; for several minutes until epinephrine was added): complete aggregation inhibition
HPEAKRMPCAEDYLSVVLNQLCVLEHKTPVSDRV (listed as Homo sapiens) [P263, reference compound]	0%	0%		10%	13%	5%	0%	0%	0%	0%	0%	0%	0%					0%	% Inhibition Of Activity: 6WI-1 Peptide Combos ([3]; peptide combination): 0%
LSEDKLLACGEG (listed as Homo sapiens) [P149a]		21%	but not P149a or P149b, significantly suppressed	21%	22%	28%	28%	25%	33%	63%	40%	0%	0%	30-40 (biphasic %	No effect	No effect	No effect	24%	
Risotcetin [reference compound]														100%	100%	100%	100%		
B1														85-90%	100%	90%	No effect		
